Assay results reported in ChEMBL document CHEMBL1145235, “Optimization of pyrrolidinone based HIV protease inhibitors” (Bioorg Med Chem Lett, 2005).

Columns and labels:
[1] = biological target: Human immunodeficiency virus type 1 protease (Human immunodeficiency virus 1, UniProt Q72874); assay: Inhibition constant against HIV Protease
[2] = tested on: MT4; assay: Antiviral inhibitory concentration against human immunodeficiency virus type 1 in MT-4 cell culture; type: functional, cell-based

Row | SMILES | Ki [1] [nM] | IC50 [2] [nM]
1 | O=C(C[C@@H](Cc1ccccc1)C(=O)NC1c2ccccc2C[C@H]1O)CN1C(=O)[C@@H](Cc2ccccc2)C[C@@H]1Cc1ccc(OCc2ccccc2)cc1 (some centres undefined) | 0.13 | 550
2 | O=C(C[C@@H](Cc1ccccc1)C(=O)NC1c2ccccc2C[C@H]1O)CN1C(=O)[C@@H](Cc2ccccc2)C[C@@H]1Cc1ccccc1 (some centres undefined) | 0.05 | 720
3 | NC(=O)COc1ccc(C[C@H](CC(=O)CN2C(=O)[C@@H](Cc3ccccc3)C[C@@H]2Cc2ccccc2)C(=O)NC2c3ccccc3C[C@H]2O)cc1 (some centres undefined) | 0.07 | 360
4 | COCCOCCOc1ccc(C[C@H](CC(=O)CN2C(=O)[C@@H](Cc3ccccc3)C[C@@H]2Cc2ccccc2)C(=O)NC2c3ccccc3C[C@H]2O)cc1 (some centres undefined) | 0.02 | 93
5 | O=C(C[C@@H](Cc1ccc(OCc2ccccn2)cc1)C(=O)NC1c2ccccc2C[C@H]1O)CN1C(=O)[C@@H](Cc2ccccc2)C[C@@H]1Cc1ccccc1 (some centres undefined) | 0.07 | 380
6 | O=C(C[C@@H](Cc1ccc(OCc2ccccc2)cc1)C(=O)NC1c2ccccc2C[C@H]1O)CN1C(=O)[C@@H](Cc2ccccc2)C[C@@H]1Cc1ccccc1 (some centres undefined) | 0.11 | 920
7 | O=C(C[C@@H](Cc1ccccc1)C(=O)NC1c2ccccc2C[C@H]1O)CN1C(=O)[C@@H](Cc2ccccc2)C[C@@H]1Cc1ccc(O)cc1 (some centres undefined) | – | 200
8 | O=C(C[C@@H](Cc1ccc(O)cc1)C(=O)NC1c2ccccc2C[C@H]1O)CN1C(=O)[C@@H](Cc2ccccc2)C[C@@H]1Cc1ccccc1 (some centres undefined) | 0.06 | 320

More lines, main results first:

Row | Ki [1] [nM] | SMILES | IC50 [2] [nM]
9 | 0.14 | O=C(C[C@@H](Cc1ccc(OCCN2CCOCC2)cc1)C(=O)NC1c2ccccc2C[C@H]1O)CN1C(=O)[C@@H](Cc2ccccc2)C[C@@H]1Cc1ccccc1 (some centres undefined) | 83
10 | 0.02 | O=C(C[C@@H](Cc1ccc(OCCO)cc1)C(=O)NC1c2ccccc2C[C@H]1O)CN1C(=O)[C@@H](Cc2ccccc2)C[C@@H]1Cc1ccccc1 (some centres undefined) | 94
11 | 1.3 | O=C(C[C@@H](Cc1ccccc1)C(=O)NC1c2ccccc2C[C@H]1O)CN1C(=O)[C@@H](Cc2ccccc2)C[C@@H]1Cc1ccc(OCCN2CCOCC2)cc1 (some centres undefined) | 960
12 | 0.05 | CN1CCN(C(=O)COc2ccc(C[C@H](CC(=O)CN3C(=O)[C@@H](Cc4ccccc4)C[C@@H]3Cc3ccccc3)C(=O)NC3c4ccccc4C[C@H]3O)cc2)CC1 (some centres undefined) | 130
13 | 0.02 | O=C(C[C@@H](Cc1ccc(OCC(=O)N2CCOCC2)cc1)C(=O)NC1c2ccccc2C[C@H]1O)CN1C(=O)[C@@H](Cc2ccccc2)C[C@@H]1Cc1ccccc1 (some centres undefined) | 63
14 | 0.1 | O=C(C[C@@H](Cc1ccccc1)C(=O)NC1c2ccccc2C[C@H]1O)CN1C(=O)[C@@H](Cc2ccccc2)C[C@@H]1Cc1ccc(OCC(=O)N2CCOCC2)cc1 (some centres undefined) | 200
15 | 0.3 | O=C(C[C@@H](Cc1ccccc1)C(=O)NC1c2ccccc2C[C@H]1O)CN1C(=O)[C@@H](Cc2ccccc2)C[C@@H]1Cc1ccc(OCCO)cc1 (some centres undefined) | 480
